This note sets out measurements from US9593108B2, “Compounds and methods for antiviral treatment” (PTC Therapeutics, Inc., priority 2009, dated 2017).

Data set [1] deals with HCV replicon RNA (GenBank Accession No. AJ242654). As to the kind of experiment: HCV Replicon Assay (replicon RNA reduction and/or Fluc reporter signal). Format: cell-based, Hepatitis C virus. As to conditions: Hepatitis C virus, 72 h, replicon-containing cells cultured with test compound for up to 3 days. Summed up: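 IC50 values mostly reflect the drop in replicon RNA, though Fluc reporter signal may also be used. Compound incubated with cells carrying the bicistronic replicon for as long as 3 days; interferon served as positive control.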

`Cc1cnc2c(c1)c(C#N)c(-c1ccc(S(=O)(=O)NC3(C)CC3)cn1)n2C1CCCC1` [Cpd 256, 6-(3-cyano-1-cyclopentyl-5-methyl-1H-pyrrolo[2,3-b]pyridin-2-yl)-N-(1-methylcyclopropyl)pyridine-3-sulfonamide]: the melting point lay within 143 to 153 °C. The molecule also registered a concentration for half-maximal inhibition (IC50) in data set [1] of 500 to 2000 nM.
`COc1cnc2c(c1)c(C#N)c(-c1ccc(S(=O)(=O)N(C(C)=O)[C@@H](C)C(F)(F)F)cn1)n2C1CCCC1` [Cpd 257, N-{[6-(3-cyano-1-cyclopentyl-5-methoxy-1H-pyrrolo[2,3-b]pyridin-2-yl)pyridin-3-yl]sulfonyl}-N-[(2S)-1,1,1-trifluoropropan-2-yl]acetamide] displayed a melting point of 169 to 173 °C. The IC50 in data set [1] is less than 500 nM.
As to `CCc1nc2c(cc1OC)c(C#N)c(-c1ccc(S(=O)(=O)N[C@@H](C)C(F)(F)F)cn1)n2C1CCC1` [Cpd 258, 6-(3-cyano-1-cyclobutyl-6-ethyl-5-methoxy-1H-pyrrolo[2,3-b]pyridin-2-yl)-N-[(2S)-1,1,1-trifluoropropan-2-yl]pyridine-3-sulfonamide], the melting point was 186 to 189 °C. In addition, the IC50 in data set [1] is less than 500 nM.
Taken in the same sequence, the figures for `CCc1nc2c(cc1OC)c(C#N)c(-c1ccc(S(=O)(=O)N[C@H](C)C(F)(F)F)cn1)n2C1CCC1` [Cpd 259, 6-(3-cyano-1-cyclobutyl-6-ethyl-5-methoxy-1H-pyrrolo[2,3-b]pyridin-2-yl)-N-[(2R)-1,1,1-trifluoropropan-2-yl]pyridine-3-sulfonamide] were 189 to 199 °C and 2000 to 5000 nM.
`CCC(NS(=O)(=O)c1ccc(-c2c(C#N)c3cc(Cl)cnc3n2C2CCCC2)nc1)C(F)(F)F` (stereo not shown) [Cpd 260, 6-(5-chloro-3-cyano-1-cyclopentyl-1H-pyrrolo[2,3-b]pyridin-2-yl)-N-(1,1,1-trifluorobutan-2-yl)pyridine-3-sulfonamide]: the melting point was in the range of 170 to 174 °C. This molecule also yielded an IC50 in data set [1] of less than 500 nM.
In the same order, the values of `CCC(NS(=O)(=O)c1ccc(-c2c(C#N)c3cc(OC)cnc3n2C2CCC2)nc1)C(F)(F)F` (stereo not shown) [Cpd 261, 6-(3-cyano-1-cyclobutyl-5-methoxy-1H-pyrrolo[2,3-b]pyridin-2-yl)-N-(1,1,1-trifluorobutan-2-yl)pyridine-3-sulfonamide] are 185 to 190 °C and less than 500 nM.
The molecule `Cc1cnc2c(c1)c(C#N)c(-c1ccc(S(=O)(=O)N[C@H](C)C(F)(F)F)cc1)n2C1CCCC1` [Cpd 262, 4-(3-cyano-1-cyclopentyl-5-methyl-1H-pyrrolo[2,3-b]pyridin-2-yl)-N-[(2R)-1,1,1-trifluoropropan-2-yl]benzenesulfonamide] returned a melting point of 189 to 195 °C. In addition, in data set [1], the 50% inhibitory concentration (IC50) is less than 500 nM.
`Cc1cnc2c(c1)c(C#N)c(-c1ccc(S(=O)(=O)N[C@@H](C)C(F)(F)F)cc1)n2C1CCCC1` [Cpd 263, 4-(3-cyano-1-cyclopentyl-5-methyl-1H-pyrrolo[2,3-b]pyridin-2-yl)-N-[(2S)-1,1,1-trifluoropropan-2-yl]benzenesulfonamide] came in with a melting point of 191 to 196 °C. The molecule also showed a half-inhibitory concentration (IC50) in data set [1] of less than 500 nM.
Taken in the same sequence, the figures for `Cc1cnc2c(c1)c(C#N)c(-c1ccc(NC(C)C)cc1)n2C1CCC1` [Cpd 264, 1-cyclobutyl-5-methyl-2-[4-(propan-2-ylamino)phenyl]-1H-pyrrolo[2,3-b]pyridine-3-carbonitrile] were 193 to 199 °C and less than 500 nM.
In the same order, the values of `Cc1cnc2c(c1)c(C#N)c(-c1ccc(NC(=O)C(C)C)cc1)n2C1CCC1` [Cpd 265, N-[4-(3-cyano-1-cyclobutyl-5-methyl-1H-pyrrolo[2,3-b]pyridin-2-yl)phenyl]-2-methylpropanamide] are 134 to 140 °C and 500 to 2000 nM.
In the same order, the values of `Cc1cnc2c(c1)c(C#N)c(-c1ccc(NC(=O)NC(C)C)cc1)n2C1CCC1` [Cpd 266, 1-[4-(3-cyano-1-cyclobutyl-5-methyl-1H-pyrrolo[2,3-b]pyridin-2-yl)phenyl]-3-propan-2-ylurea] are 224 to 231 °C and less than 500 nM.
In turn, `Cc1cnc2c(c1)c(C#N)c(-c1ccc(NS(=O)(=O)C(C)C)cc1)n2C1CCC1` [Cpd 267, N-[4-(3-cyano-1-cyclobutyl-5-methyl-1H-pyrrolo[2,3-b]pyridin-2-yl)phenyl]propane-2-sulfonamide] gave a melting point of 155 to 164 °C. This molecule came in with an IC50 in data set [1] of 500 to 2000 nM.
Regarding `COc1cnc2c(c1)c(C#N)c(-c1ccc(S(=O)(=O)N[C@H](C)C(F)(F)F)cn1)n2C1CCCC1` [Cpd 268, 6-(3-cyano-1-cyclopentyl-5-methoxy-1H-pyrrolo[2,3-b]pyridin-2-yl)-N-[(2R)-1,1,1-trifluoropropan-2-yl]pyridine-3-sulfonamide], the melting point is 181 to 184 °C. This molecule also had an IC50 in data set [1] of 500 to 2000 nM.
Turning to `C[C@H](NS(=O)(=O)c1ccc(-c2c(C#N)c3cc(Cl)cnc3n2-c2ncccn2)nc1)C(F)(F)F` [Cpd 270, 6-[5-chloro-3-cyano-1-(pyrimidin-2-yl)-1H-pyrrolo[2,3-b]pyridin-2-yl]-N-[(2S)-1,1,1-trifluoropropan-2-yl]pyridine-3-sulfonamide], the melting point is 223 to 225 °C. In addition, the IC50 in data set [1] is less than 500 nM.
In the same order, the values of `COc1cnc2c(c1)c(C#N)c(-c1ccc(S(=O)(=O)NC(C)(C)C)cn1)n2C1CCC1` [Cpd 271, N-tert-butyl-6-(3-cyano-1-cyclobutyl-5-methoxy-1H-pyrrolo[2,3-b]pyridin-2-yl)pyridine-3-sulfonamide] are 174 to 176 °C and 500 to 2000 nM.
Taken in the same sequence, the figures for `CSc1cnc2c(c1)c(C#N)c(-c1ccc(S(=O)(=O)N[C@@H](C)C(F)(F)F)cn1)n2C1CCCC1` [Cpd 272, 6-[3-cyano-1-cyclopentyl-5-(methylsulfanyl)-1H-pyrrolo[2,3-b]pyridin-2-yl]-N-[(2S)-1,1,1-trifluoropropan-2-yl]pyridine-3-sulfonamide] were 168 to 172 °C and less than 500 nM.
In the same order, the values of `CSc1cnc2c(c1)c(C#N)c(-c1ccc(S(=O)(=O)N[C@H](C)C(F)(F)F)cn1)n2C1CCCC1` [Cpd 273, 6-[3-cyano-1-cyclopentyl-5-(methylsulfanyl)-1H-pyrrolo[2,3-b]pyridin-2-yl]-N-[(2R)-1,1,1-trifluoropropan-2-yl]pyridine-3-sulfonamide] are 124 to 127 °C and less than 500 nM.
Consider `CSc1cnc2c(c1)c(C#N)c(-c1ccc(S(=O)(=O)NC3(C(F)(F)F)CC3)cn1)n2C1CCCC1` [Cpd 274, 6-[3-cyano-1-cyclopentyl-5-(methylsulfanyl)-1H-pyrrolo[2,3-b]pyridin-2-yl]-N-[1-(trifluoromethyl)cyclopropyl]pyridine-3-sulfonamide], for which the melting point fell in the range of 200 to 203 °C. The molecule also showed an IC50 in data set [1] of less than 500 nM.
Taken in the same sequence, the figures for `C[C@H](NS(=O)(=O)c1ccc(-c2c(C#N)c3cc(O)cnc3n2C2CCC2)nc1)C(F)(F)F` [Cpd 275, 6-(3-cyano-1-cyclobutyl-5-hydroxy-1H-pyrrolo[2,3-b]pyridin-2-yl)-N-[(2S)-1,1,1-trifluoropropan-2-yl]pyridine-3-sulfonamide] were 240 to 242 °C and less than 500 nM.
`CC[C@H](NS(=O)(=O)c1ccc(-c2c(C#N)c3cc(Cl)cnc3n2C2CCC2)nc1)C(F)(F)F` [Cpd 276, 6-(5-chloro-3-cyano-1-cyclobutyl-1H-pyrrolo[2,3-b]pyridin-2-yl)-N-[(2S)-1,1,1-trifluorobutan-2-yl]pyridine-3-sulfonamide] came in with a melting point of 186 to 191 °C. For the same molecule, the IC50 in data set [1] is less than 500 nM.
On to `COc1cnc2c(c1)c(C#N)c(-c1cc(C)c(S(=O)(=O)N[C@@H](C)C(F)(F)F)cn1)n2C1CCC1` [Cpd 277, 6-(3-cyano-1-cyclobutyl-5-methoxy-1H-pyrrolo[2,3-b]pyridin-2-yl)-4-methyl-N-[(2S)-1,1,1-trifluoropropan-2-yl]pyridine-3-sulfonamide], for which the melting point was 175 to 179 °C. The same molecule had an IC50 in data set [1] of less than 500 nM.
The molecule `Cc1cc(-c2c(C#N)c3cc(Cl)cnc3n2C2CCCC2)ncc1S(=O)(=O)N[C@@H](C)C(F)(F)F` [Cpd 278, 6-(5-chloro-3-cyano-1-cyclopentyl-1H-pyrrolo[2,3-b]pyridin-2-yl)-4-methyl-N-[(2S)-1,1,1-trifluoropropan-2-yl]pyridine-3-sulfonamide] returned a melting point of 190 to 195 °C. In addition, the IC50 in data set [1] is less than 500 nM.
Molecule `CC[C@H](NS(=O)(=O)c1ccc(-c2c(C#N)c3cc(C)cnc3n2C2CCC2)nc1)C(F)(F)F` [Cpd 279, 6-(3-cyano-1-cyclobutyl-5-methyl-1H-pyrrolo[2,3-b]pyridin-2-yl)-N-[(2S)-1,1,1-trifluorobutan-2-yl]pyridine-3-sulfonamide] came in with a melting point of 138 to 144 °C. In data set [1], the IC50 was less than 500 nM.
Taken in the same sequence, the figures for `N#Cc1c(-c2ccc(S(=O)(=O)NC3CCC3)cn2)n(C2CCC2)c2ncc(Cl)cc12` [Cpd 283, 6-(5-chloro-3-cyano-1-cyclobutyl-1H-pyrrolo[2,3-b]pyridin-2-yl)-N-cyclobutylpyridine-3-sulfonamide] were 178 to 180 °C and less than 500 nM.
In the same order, the values of `C[C@H](NS(=O)(=O)c1cnc(-c2c(C#N)c3cc(Cl)cnc3n2C2CCC2)nc1)C(F)(F)F` [Cpd 285, 2-(5-chloro-3-cyano-1-cyclobutyl-1H-pyrrolo[2,3-b]pyridin-2-yl)-N-[(2S)-1,1,1-trifluoropropan-2-yl]pyrimidine-5-sulfonamide] are 205 to 207 °C and less than 500 nM.
As for `CC1(NS(=O)(=O)c2cnc(-c3c(C#N)c4cc(Cl)cnc4n3C3CCC3)nc2)CC1` [Cpd 286, 2-(5-chloro-3-cyano-1-cyclobutyl-1H-pyrrolo[2,3-b]pyridin-2-yl)-N-(1-methylcyclopropyl)pyrimidine-5-sulfonamide], the melting point fell in the range of 237 to 240 °C. The IC50 in data set [1] is less than 500 nM.
